Measured values reported in ChEMBL document CHEMBL1201862, “PubChem BioAssay data set” (2004).
Activity calls are given as the source filed them.

What was measured:
[1] = molecular target: T1, RNA-binding protein pos-1 (Caenorhabditis elegans, UniProt G5EF15); assay: inhibitors of POS-1/mex-3 RNA binding, dose response, biochemical, fluorescence polarization (AID 1964);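 also: purified POS-1 fused to maltose binding protein made in E. coli; potency of compounds blocking POS-1 binding to fluorescent RNA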
T1 sequence (G5EF15 whole entry): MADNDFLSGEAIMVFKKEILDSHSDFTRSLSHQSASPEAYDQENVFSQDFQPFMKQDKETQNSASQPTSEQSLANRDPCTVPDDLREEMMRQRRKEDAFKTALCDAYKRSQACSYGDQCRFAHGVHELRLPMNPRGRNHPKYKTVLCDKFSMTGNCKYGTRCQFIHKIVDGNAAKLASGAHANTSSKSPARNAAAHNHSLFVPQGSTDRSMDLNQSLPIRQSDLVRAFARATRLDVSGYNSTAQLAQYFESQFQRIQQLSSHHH

[2] = Counterscreen for IDE inhibitors: Luminescence-based cell-based high throughput dose response assay to identify compounds that are cytotoxic to HEK cells. [Related pubchem assays: 434962 (Primary screen (IDE inhibitors in singlicate)), 449730 (Counterscreen (Cytotoxicity in triplicate)), 435028 (Confirmation (IDE inhibitors in triplicate)) …; type: functional; details: HEK293
[3] = molecular target: T2, Zinc finger protein mex-5 (Caenorhabditis elegans, UniProt Q9XUB2); assay: MEX-5/TCR-2 RNA interaction inhibitors, dose response, biochemical, C. elegans, fluorescence polarization (AID 1960)
T2 sequence (Q9XUB2 whole entry): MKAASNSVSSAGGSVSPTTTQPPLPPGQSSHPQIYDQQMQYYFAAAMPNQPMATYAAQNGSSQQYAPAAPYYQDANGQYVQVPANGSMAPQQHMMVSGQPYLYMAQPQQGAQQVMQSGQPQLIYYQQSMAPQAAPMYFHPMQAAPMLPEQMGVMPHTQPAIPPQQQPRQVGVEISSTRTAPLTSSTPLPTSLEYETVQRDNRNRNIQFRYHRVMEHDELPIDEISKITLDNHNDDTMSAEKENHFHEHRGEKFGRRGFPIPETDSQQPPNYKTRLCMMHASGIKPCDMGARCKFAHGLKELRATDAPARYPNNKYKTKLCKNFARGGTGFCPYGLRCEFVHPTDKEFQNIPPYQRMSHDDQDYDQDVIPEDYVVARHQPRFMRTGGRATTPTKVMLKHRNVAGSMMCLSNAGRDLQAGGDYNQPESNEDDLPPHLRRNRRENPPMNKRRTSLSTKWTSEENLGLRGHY

Insulin-degrading enzyme = Insulin-degrading enzyme (Homo sapiens, UniProt P14735); assay: Dose Response: Fluorescence polarization-based cell-based high throughput dose response assay for inhibitors of insulin-degrading enzyme (IDE). [Related pubchem assays: 434962 (Primary screen (IDE inhibitors in singlicate)), 449730 (Counterscreen (Cytotoxicity in triplicate)), 435028 (Confirmation (IDE inhibitors in triplicate)), 434984 (Summary …; type: functional
[4] = molecular target: 1-acylglycerol-3-phosphate O-acyltransferase ABHD5/Perilipin-5 (Homo sapiens, UniProt Q00G26+Q8WTS1); assay: Luminescence-based biochemical high throughput dose response assay for inhibitors of the interaction of the lipase co-activator protein, abhydrolase domain containing 5 (ABHD5) with perilipin-5 (MLDP; PLIN5) (2K validation set). [Related pubchem assays (depositor defined):AID493035, AID493241]
Perilipin-1/ABHD5 = Perilipin-1/ABHD5 (Homo sapiens, UniProt O60240+Q8WTS1); assay: Luminescence-based biochemical high throughput dose response assay for inhibitors of the interaction of the lipase co-activator protein, abhydrolase domain containing 5 (ABHD5) with perilipin-1 (PLIN1) (2K validation set). [Related pubchem assays (depositor defined):AID493027, AID493057]
[5] = growth suppression of PTEN-null colon cells, dose response, cell-based, HCT116 PTEN knockout (AID 1047); type: functional;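 also: HCT116 colon tumor cells with PTEN knocked out; cells exposed to compound for 60 hours before readout; potency for loss of cell viability measured by luminescence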
[6] = growth suppression of beta-catenin-knockout colon cells, dose response, cell-based, HCT116, human colon tumor (AID 1045); type: functional;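 also: HCT116 colon tumor cells with beta catenin knocked out; cells exposed to compound for 60 hours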
[7] = molecular target: Alkaline phosphatase, placental type (Homo sapiens, UniProt P05187); assay: PLAP enzyme inhibitors, confirmation, biochemical, luminescence (AID 1512); type: functional
[8] = molecular target: T3, Alkaline phosphatase, tissue-nonspecific isozyme (Homo sapiens, UniProt P05186); assay: human TNAP enzyme inhibitors, SAR follow-up, biochemical, luminescent, dose response (AID 1056)
T3 sequence (P05186 whole entry): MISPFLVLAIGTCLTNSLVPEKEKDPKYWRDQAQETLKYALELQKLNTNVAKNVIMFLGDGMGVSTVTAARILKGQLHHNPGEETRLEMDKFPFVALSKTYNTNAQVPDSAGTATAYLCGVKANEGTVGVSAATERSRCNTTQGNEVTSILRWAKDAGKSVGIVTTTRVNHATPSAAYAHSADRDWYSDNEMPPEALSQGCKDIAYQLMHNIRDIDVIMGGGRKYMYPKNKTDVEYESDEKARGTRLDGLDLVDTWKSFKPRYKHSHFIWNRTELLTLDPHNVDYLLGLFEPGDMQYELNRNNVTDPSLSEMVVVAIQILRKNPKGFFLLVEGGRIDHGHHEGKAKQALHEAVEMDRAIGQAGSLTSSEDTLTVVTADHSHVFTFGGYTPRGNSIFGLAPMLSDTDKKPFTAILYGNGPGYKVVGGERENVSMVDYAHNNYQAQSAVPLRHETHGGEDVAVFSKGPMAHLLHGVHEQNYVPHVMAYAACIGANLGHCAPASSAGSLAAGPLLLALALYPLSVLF

Coagulation factor XII = molecular target: T4, Coagulation factor XII (Homo sapiens, UniProt P00748); assay: FXIIa inhibitor potency, concentration-response, biochemical (AID 716); type: functional
T4 sequence (P00748 whole entry): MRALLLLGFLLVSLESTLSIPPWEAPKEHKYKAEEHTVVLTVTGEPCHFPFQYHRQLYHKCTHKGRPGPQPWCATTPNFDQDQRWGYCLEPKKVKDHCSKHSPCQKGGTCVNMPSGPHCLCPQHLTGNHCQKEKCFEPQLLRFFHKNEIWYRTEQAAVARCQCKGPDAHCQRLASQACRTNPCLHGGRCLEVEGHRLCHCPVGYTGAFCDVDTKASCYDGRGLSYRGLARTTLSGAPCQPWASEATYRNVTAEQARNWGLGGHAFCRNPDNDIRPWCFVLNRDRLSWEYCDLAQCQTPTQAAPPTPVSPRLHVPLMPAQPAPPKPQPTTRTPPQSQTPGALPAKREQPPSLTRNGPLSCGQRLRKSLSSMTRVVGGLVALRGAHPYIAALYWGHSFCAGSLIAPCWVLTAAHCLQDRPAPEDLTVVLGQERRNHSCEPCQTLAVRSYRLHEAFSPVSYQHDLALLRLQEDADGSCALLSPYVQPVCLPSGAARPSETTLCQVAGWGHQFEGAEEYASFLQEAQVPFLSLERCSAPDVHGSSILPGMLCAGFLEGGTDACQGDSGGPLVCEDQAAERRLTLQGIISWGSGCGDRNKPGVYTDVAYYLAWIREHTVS

Ion channel NompC = Ion channel NompC (Danio rerio, UniProt Q7T1G6); assay: Dose response cell-based high-throughput screening assay for agonists of the transient receptor potential channel N1 (TRPN1). [Related pubchem assays (depositor defined):AID1424, AID1448]; type: functional
Mucolipin-3 = Mucolipin-3 (Homo sapiens, UniProt Q8TDD5); assay: Fluorescence counterscreen assay for […] agonists: dose response cell-based high-throughput screening assay to identify agonists of the transient receptor potential channel ML3 (TRPML3). [Related pubchem assays: 1424, 1448 ]; type: functional
Exodeoxyribonuclease V = Exodeoxyribonuclease V (Escherichia coli (strain K12), UniProt P04993+P07648+P08394); assay: E. coli RecBCD inhibitors, dose response, counter-screen for AddAB inhibitor project, absorbance, V66 E. coli, mutant T4 phage (AID 492957); type: functional, cell-based, Escherichia coli str. K-12 substr. MG1655
[9] = molecular target: T5, Short transient receptor potential channel 4 (Mus musculus, UniProt Q9QUQ5); assay: mouse TRPC4 channel activators, dose response, cell-based, HEK293 TRPC4/mu-opioid, Fluo-4 calcium (AID 434937); type: functional
T5 sequence (Q9QUQ5 whole entry): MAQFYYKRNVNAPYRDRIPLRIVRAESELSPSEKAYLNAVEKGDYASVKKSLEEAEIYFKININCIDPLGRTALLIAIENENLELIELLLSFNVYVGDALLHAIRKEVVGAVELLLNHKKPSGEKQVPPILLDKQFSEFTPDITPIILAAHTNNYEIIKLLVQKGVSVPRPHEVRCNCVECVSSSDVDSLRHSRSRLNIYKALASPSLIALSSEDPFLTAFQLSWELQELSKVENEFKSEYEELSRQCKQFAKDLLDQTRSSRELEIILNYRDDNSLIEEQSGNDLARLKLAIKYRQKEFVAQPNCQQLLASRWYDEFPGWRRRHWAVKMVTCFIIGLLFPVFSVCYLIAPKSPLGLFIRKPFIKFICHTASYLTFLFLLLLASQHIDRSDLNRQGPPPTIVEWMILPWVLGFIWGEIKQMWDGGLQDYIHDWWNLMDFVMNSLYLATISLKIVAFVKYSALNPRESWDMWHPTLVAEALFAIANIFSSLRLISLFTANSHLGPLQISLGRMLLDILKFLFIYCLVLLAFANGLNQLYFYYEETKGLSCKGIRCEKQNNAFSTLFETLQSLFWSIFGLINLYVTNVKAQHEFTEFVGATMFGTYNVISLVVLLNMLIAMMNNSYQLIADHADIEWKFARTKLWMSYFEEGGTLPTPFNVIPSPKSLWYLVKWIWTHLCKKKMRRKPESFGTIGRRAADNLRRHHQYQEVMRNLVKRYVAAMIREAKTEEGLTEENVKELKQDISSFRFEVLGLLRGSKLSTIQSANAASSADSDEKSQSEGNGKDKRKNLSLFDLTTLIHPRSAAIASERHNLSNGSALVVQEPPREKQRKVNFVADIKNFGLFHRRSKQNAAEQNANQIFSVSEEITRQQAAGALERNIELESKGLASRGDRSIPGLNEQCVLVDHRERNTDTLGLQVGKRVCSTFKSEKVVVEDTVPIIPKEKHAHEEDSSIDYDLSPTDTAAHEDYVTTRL

[10] = decrease of PhoP-driven GFP reporter signal, S. Typhimurium, dose response, PhoP regulon inhibitor project, purified and synthesized compounds, set 2 (AID 2831); type: functional
[11] = Counterscreen for AddAB inhibitors: absorbance-based bacterial cell-based high throughput dose response assay for inhibitors of bacterial viability. [Related pubchem assays (depositor defined):AID435030, AID449728, AID449731, AID488942, AID488955, AID488956]; type: functional
Vero = assay: cells; type: functional; details: Chlorocebus sabaeus
Integrin alpha-L = Integrin alpha-L (Mus musculus, UniProt P24063); assay: modulators of CD8 T cell-vesicle binding, dose response, powder samples, mouse 2C CD8+ cells (AID 504565); type: functional
[12] = Shn3 3'UTR reporter inhibitors, dose response, cell-based, Clone20 osteoblasts, firefly luciferase, cherry-picked (AID 624132); type: functional;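 also: firefly luciferase luminescence from reporter carrying the Shn3 3'UTR in osteoblasts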
[13] = molecular target: T6, Tyrosine-protein phosphatase non-receptor type 7 (Homo sapiens, UniProt P35236); assay: HePTP (PTPN7) phosphatase inhibitor potency, SAR follow-up, biochemical, set 2 (AID 449736); type: functional
T6 sequence (P35236 whole entry): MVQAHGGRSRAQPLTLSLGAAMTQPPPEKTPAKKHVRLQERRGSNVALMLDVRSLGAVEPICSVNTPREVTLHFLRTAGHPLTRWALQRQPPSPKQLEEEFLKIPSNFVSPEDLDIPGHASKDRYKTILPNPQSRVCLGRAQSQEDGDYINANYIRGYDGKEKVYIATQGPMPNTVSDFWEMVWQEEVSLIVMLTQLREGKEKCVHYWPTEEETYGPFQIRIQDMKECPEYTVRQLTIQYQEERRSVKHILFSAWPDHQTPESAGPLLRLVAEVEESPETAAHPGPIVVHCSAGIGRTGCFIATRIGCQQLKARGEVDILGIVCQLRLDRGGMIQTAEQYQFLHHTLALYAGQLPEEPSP

Mu-type opioid receptor = Mu-type opioid receptor (Homo sapiens, UniProt P35372); assay: SAR Analysis of Antagonists of the MOR Receptor using an Image-Based Assay - Set 3. [Related pubchem assays (depositor defined):AID1777, AID1785, AID1786, AID1966, AID2133, AID2136, AID2284, AID2285, AID2420]; type: functional
[14] = molecular target: Delta-type opioid receptor (Homo sapiens, UniProt P41143); assay: SAR Analysis of Antagonists of the DOR Receptor using an Image-Based Assay - Set 3. [Related pubchem assays (depositor defined):AID1777, AID1785]; type: functional;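 also: U2OS cells expressing DOR1 and beta-arrestin GFP stimulated with 100 nM SNC80; imaging of GFP-tagged beta-arrestin moving into spots after receptor activation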
[15] = molecular target: T7, Kappa-type opioid receptor (Homo sapiens, UniProt P41145); assay: SAR analysis of small molecule antagonists of the kappa opioid receptor via a luminescent beta-arrestin assay - Set 3. [Related pubchem assays (depositor defined):AID1777, AID1778, AID1785, AID1786, AID1966, AID2133, AID2136, AID2285, AID2495]; type: functional
[16] = molecular target: T7, Kappa-type opioid receptor; assay: SAR analysis of Antagonists of the Kappa Opioid Receptor (KOR) using an Image-Based Assay - Set 3. [Related pubchem assays (depositor defined):AID1777, AID1785]; type: functional

T7 sequence (P41145 whole entry): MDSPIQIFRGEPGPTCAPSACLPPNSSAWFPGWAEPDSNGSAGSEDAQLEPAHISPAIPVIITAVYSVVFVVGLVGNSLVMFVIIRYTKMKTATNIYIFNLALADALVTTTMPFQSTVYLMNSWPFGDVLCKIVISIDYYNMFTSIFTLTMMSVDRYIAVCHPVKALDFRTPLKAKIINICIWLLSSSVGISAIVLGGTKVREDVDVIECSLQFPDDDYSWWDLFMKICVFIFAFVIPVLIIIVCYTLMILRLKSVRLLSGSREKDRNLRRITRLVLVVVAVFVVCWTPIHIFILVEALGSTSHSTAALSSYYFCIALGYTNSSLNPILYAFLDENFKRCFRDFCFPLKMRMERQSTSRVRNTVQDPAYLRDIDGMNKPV
Sequence of Ion channel NompC (Q7T1G6 whole entry): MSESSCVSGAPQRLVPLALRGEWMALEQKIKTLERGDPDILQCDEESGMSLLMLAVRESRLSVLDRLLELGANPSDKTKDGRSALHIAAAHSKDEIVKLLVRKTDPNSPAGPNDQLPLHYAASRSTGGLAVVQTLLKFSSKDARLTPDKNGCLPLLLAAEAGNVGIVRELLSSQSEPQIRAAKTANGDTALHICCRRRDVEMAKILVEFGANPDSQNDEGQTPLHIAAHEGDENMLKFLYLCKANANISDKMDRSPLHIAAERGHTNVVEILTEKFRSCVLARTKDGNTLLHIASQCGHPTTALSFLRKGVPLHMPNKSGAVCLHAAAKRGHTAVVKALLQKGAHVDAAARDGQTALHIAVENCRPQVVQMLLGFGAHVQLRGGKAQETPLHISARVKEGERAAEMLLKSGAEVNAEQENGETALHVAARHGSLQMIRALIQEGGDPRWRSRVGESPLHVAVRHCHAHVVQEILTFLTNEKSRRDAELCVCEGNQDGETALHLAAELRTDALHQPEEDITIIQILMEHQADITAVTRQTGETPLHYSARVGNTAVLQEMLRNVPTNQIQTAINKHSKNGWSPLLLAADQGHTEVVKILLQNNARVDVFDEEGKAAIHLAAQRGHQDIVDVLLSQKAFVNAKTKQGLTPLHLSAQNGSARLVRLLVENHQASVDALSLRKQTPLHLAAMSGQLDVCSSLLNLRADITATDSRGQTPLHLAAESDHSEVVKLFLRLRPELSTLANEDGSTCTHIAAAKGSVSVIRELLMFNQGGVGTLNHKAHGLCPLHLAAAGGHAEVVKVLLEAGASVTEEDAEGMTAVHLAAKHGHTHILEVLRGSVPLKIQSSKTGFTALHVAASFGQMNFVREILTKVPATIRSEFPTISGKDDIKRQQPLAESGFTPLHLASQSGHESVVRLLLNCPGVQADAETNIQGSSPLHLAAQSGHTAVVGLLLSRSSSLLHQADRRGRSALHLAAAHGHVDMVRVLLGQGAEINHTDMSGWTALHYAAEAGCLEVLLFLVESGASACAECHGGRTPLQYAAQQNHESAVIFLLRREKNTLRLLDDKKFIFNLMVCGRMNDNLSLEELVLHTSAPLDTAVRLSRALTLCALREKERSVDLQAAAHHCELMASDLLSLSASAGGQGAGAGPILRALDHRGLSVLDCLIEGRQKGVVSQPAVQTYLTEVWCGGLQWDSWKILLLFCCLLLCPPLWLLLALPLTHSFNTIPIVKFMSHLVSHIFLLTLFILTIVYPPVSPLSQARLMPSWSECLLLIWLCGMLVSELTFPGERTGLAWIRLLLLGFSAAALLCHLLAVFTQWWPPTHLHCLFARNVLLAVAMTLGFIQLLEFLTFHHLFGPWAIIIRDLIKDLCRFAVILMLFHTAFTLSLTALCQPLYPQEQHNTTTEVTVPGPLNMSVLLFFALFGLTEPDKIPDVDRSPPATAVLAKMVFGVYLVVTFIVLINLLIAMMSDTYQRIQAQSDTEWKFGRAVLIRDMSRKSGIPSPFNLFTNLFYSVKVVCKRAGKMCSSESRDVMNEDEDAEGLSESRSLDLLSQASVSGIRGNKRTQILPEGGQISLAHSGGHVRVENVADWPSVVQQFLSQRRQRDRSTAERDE
Sequence of Alkaline phosphatase, placental type (P05187 whole entry): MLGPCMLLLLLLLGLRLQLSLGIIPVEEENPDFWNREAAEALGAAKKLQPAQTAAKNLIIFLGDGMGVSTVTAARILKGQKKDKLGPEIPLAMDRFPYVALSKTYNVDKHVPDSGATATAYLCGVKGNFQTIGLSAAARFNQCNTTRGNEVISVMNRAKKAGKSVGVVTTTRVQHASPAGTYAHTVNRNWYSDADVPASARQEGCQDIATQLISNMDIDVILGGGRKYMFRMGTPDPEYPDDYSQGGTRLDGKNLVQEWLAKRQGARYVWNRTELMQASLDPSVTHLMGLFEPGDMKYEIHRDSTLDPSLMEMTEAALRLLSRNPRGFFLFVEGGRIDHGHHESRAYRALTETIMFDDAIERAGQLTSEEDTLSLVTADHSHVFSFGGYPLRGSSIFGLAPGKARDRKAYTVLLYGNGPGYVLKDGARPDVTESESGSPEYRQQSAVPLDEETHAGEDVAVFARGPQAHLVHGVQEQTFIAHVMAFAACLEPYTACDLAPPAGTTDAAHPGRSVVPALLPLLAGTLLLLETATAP
Sequence of Perilipin-1/ABHD5 (Q8WTS1 whole entry, the tested form may be a part): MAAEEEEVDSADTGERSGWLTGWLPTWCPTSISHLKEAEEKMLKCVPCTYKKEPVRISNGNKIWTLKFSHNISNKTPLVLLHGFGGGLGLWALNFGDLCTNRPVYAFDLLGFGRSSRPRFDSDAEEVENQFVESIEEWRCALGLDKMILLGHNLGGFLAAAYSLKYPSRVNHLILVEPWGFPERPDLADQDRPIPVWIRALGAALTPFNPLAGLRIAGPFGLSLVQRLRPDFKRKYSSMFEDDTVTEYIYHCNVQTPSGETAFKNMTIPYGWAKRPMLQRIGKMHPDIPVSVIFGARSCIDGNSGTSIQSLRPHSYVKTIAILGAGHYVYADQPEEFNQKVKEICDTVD
Sequence of Perilipin-1/ABHD5 (O60240 whole entry, the tested form may be a part): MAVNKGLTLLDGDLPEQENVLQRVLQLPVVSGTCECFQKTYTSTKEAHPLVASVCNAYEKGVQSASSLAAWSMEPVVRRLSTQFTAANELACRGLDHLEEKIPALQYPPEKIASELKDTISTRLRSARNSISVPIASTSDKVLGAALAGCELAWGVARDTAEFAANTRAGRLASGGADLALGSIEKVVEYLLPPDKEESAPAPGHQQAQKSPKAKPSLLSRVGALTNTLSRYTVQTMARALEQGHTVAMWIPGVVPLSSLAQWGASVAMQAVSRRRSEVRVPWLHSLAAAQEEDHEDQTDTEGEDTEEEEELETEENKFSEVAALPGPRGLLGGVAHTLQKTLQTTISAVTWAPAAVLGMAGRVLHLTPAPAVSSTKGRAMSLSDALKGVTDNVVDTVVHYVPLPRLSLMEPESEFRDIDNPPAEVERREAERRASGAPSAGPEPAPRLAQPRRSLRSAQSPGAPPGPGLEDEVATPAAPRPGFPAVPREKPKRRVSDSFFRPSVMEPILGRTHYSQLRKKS
Sequence of Insulin-degrading enzyme (P14735 whole entry, the tested form may be a part): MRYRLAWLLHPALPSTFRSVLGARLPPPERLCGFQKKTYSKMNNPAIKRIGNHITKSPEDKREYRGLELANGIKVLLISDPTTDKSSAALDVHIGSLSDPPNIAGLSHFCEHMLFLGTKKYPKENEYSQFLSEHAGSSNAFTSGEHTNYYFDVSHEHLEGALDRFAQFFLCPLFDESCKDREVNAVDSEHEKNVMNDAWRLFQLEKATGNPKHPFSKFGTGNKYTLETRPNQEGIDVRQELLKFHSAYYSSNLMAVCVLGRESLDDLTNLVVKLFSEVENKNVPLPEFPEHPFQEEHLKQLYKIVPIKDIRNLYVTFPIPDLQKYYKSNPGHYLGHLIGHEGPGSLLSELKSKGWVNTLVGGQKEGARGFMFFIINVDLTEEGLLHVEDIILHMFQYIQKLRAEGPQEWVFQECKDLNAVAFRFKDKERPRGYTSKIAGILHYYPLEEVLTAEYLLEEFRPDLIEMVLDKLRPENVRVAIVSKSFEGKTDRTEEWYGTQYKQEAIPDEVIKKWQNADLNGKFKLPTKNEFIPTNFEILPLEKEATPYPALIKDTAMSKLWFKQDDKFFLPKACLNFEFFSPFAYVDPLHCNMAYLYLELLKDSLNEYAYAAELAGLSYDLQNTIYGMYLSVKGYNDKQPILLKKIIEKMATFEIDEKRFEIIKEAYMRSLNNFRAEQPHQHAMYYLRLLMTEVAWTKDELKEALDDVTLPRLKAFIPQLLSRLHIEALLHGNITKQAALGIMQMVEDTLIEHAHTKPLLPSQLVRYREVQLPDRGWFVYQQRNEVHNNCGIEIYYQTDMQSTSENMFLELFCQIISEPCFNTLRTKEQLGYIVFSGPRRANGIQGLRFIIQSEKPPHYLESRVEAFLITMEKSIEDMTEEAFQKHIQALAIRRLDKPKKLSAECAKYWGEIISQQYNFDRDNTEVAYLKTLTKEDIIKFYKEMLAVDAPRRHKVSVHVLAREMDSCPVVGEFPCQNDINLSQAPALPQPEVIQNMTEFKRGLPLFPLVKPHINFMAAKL
Sequence of Mucolipin-3 (Q8TDD5 whole entry): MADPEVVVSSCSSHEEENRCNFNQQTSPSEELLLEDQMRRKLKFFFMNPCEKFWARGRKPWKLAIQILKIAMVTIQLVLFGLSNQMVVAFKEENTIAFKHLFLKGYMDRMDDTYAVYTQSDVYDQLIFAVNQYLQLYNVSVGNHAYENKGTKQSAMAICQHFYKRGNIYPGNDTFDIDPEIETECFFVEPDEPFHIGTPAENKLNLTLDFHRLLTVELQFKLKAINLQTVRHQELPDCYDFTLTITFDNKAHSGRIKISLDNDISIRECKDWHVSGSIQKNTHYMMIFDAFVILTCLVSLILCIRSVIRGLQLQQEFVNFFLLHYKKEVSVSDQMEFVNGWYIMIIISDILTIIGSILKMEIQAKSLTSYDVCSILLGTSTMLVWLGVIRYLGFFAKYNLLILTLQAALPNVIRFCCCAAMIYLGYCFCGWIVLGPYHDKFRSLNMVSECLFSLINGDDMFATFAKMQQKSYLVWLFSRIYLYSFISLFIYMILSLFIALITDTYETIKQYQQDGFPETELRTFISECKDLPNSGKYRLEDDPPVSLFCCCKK

CS(=O)(=O)Oc1ccc2c(c1)O/C(=C\C=C\c1ccccc1)C2=O
EC50 [1]: 5.46 µM (active) | IC50 [2]: 19.4 µM (not active) | EC50 [3]: 3.83 µM (active) | IC50 (Insulin-degrading enzyme): > 55.9 µM (not active) | IC50 [4]: 17.6 µM (inactive) | IC50 (Perilipin-1/ABHD5): 11 µM (inactive)

O=C(NC1(C(F)(F)F)Oc2ccccc2O1)N1CCCC1
EC50 [5]: 15.4 µM (active) | EC50 [6]: 18 µM (active) | IC50 [7]: 80.9 µM (active) | IC50 [8]: > 100 µM (inactive)

COc1ccc(-c2nnc(SCC(=O)Nc3cc(C)on3)n2N)cc1OC
IC50 (Coagulation factor XII): > 50 µM (inactive)

O=C(Nc1nnc(-c2cccs2)o1)c1cccc(C(F)(F)F)c1
EC50 (Ion channel NompC): 3.33 µM (active) | EC50 (Mucolipin-3): 4.5 µM (active) | IC50 (Exodeoxyribonuclease V): 68.2 µM (inactive) | EC50 [9]: 11.9 µM (active) | IC50 [10]: > 125 µM (active) | IC50 [11]: > 39.5 µM (inactive) | CC50 (Vero): > 25 µM (active)

CN(CC(=O)Nc1cc(S(=O)(=O)N2CCCC2)ccc1Cl)Cc1ccc2c(c1)OCO2
EC50 (Integrin alpha-L): 0.197 µM (active) | AC50 [12]: 13.1 µM (active)

Cc1ccccc1-n1c(N)c(C(=O)N2CCOCC2)sc1=S
IC50 [13]: > 100 µM (inactive)

Cc1ccc(S(=O)(=O)NCc2ccc(C(=O)NCCN3Cc4ccccc4C3)cc2)cc1
IC50 (Mu-type opioid receptor): > 32 µM (inactive) | IC50 [14]: > 32 µM (inactive) | IC50 [15]: > 20 µM (inactive) | IC50 [16]: > 32 µM (inactive)
